Values after ≈ are worked out from the molar mass of the structure shown.
Experiments:
[1] = LogD of Bezuclastinib (Table 1); assay type: physicochemical
Text: (§1) Bezuclastinib has a high melting point and is insoluble in aqueous and most organic solvents. No suitable salt or co-crystal was found.

[2] = Solubility in organic solvents; assay type: physicochemical; conditions: organic solvent or mixture, thermodynamic from solid, 21° C., read-out: free drug concentration (solubility)
Protocol: (Table 3). A saturated suspension was prepared in each solvent and the samples were stirred overnight using a magnetic stirrer. The free drug concentration was determined by subjecting the samples to 7 minutes in an ultracentrifuge at 470,000× gravity. A 100 μL aliquot was withdrawn and diluted in 5× in DMSO and Methanol and tested by the HPLC method. Three (3) replicates were performed in each solvent. Bezuclastinib was poorly soluble (free drug concentration <5.0 mg/mL), other than DMSO (free drug concentration <20 mg/mL).

[3] = Non-sink dissolution test in simulated intestinal fluid, no gastric transfer; assay type: physicochemical; conditions: SIF 0.5% bile salt, pH 6.5, 37° C., 1 mg API per mL
Protocol: Non-sink dissolution testing was used to determine the kinetic solubility as well as the extent and duration of supersaturation of amorphous dispersions. Spray dried samples were examined under non sink dissolution testing conditions in FIGS. 2-5. Non sink testing was performed with and without a gastric transfer at various bile salt concentrations in biorelevant media including simulated intestinal fluid at pH 6.5 and FaSSIF at pH 6.5. Total drug and free drug concentration were determined as described in Example 2.
Samples were loaded at a concentration of 1 mg API per mL of media. The SDD's tested were 10% and 20% drug loading HPMCAS-L SDD, 20% HPMCAS-H and 20% HPMCAS-L with 5 mg/mL HPMCAS-H added.

[4] = human, in vivo, po
Text: (§2) This Example summarizes a single-center, open-label, 2-period, randomized, crossover study of Formulations A and B of bezuclastinib at single ascending dose levels in healthy adult subjects to assess pharmacokinetics and relative bioavailability. Subjects were randomized to receive either a single dose of Formulation A fasted, or a single dose of Formulation B fasted. After a washout period of 21 days, subjects were then crossed over to receive the other formulation. […] Blood draws were taken pre-dose, and 0.5, 1, 2, 3, 4, 6, 8, 12, 16, 24, 48, 72, 96, 120, 144, 168, 192, and 336 h post-dose.

clinical = conditions: human, in vivo, po
Text: as §2

[5] = Influence of pH on solubility; assay type: physicochemical; conditions: Simulated Intestinal Fluid with 0.5% bile salts, fassgf or other biorelevant, thermodynamic from solid; SIF with 0.5% bile salts, 37° C., pH 4.0, 5.5 and 6.0; read-out: free drug concentration (solubility)
Protocol: A saturated bezuclastinib suspension was prepared in each media and the samples were stirred overnight using a magnetic stirrer. The total drug concentration was determined by subjecting the samples to 3 minutes in a microcentrifuge at 19,500× gravity. The free drug concentration was determined by subjecting the samples to 7 minutes in an ultracentrifuge at 470,000× gravity. A 100 μL aliquot was withdrawn and diluted in 5× in DMSO and Methanol and tested by the HPLC method. Six (6) replicates were performed in each media. In all conditions, bezuclastinib was poorly soluble (free drug concentration <20 μg/mL).

[6] = Aqueous solubility of Bezuclastinib; assay type: physicochemical; conditions: aqueous buffer
Protocol: Compound (I) was first disclosed in U.S. Pat. No. 9,676,748 B2 and U.S. Pat. No. 10,301,280 B2. In the almost 10 years since, Compound (I) has proven to be difficult to prepare in a tablet form suitable for commercial development. In particular, Compound (I) has a very high melting point (>365° C.) and is practically insoluble in aqueous conditions (0.32 ug/mL at pH 7.0), and most organic solvents. In addition, no suitable salt or co-crystal has been found for of Compound (I), which itself readily crystalizes when forming tablets. Finally, existing tablet forms of Compound (I) allowed a relatively small proportion of API to be loaded into the tablet form, necessitating repeated dosing of many tablets, potentially jeopardizing patient compliance.
as §1

[7] = Solubility in biorelevant media; assay type: physicochemical; conditions: fassgf or other biorelevant, thermodynamic from solid; all biorelevant media (0.01N HCl, FaSSIF, SIF, FaSSGF), 37° C.; read-out: free drug concentration (solubility)
Protocol: Biorelevant media included 0.01N hydrochloric acid, Fast State Simulated Intestinal Fluid (FaSSIF) with and without bile salts, Simulated Intestinal Fluid (SIF) with various concentrations of bile salts (0, 0.5% and 1%) and Fasted State Simulated Gastric Fluid (FaSSGF). A saturated suspension was prepared in each media and the samples were stirred overnight using a magnetic stirrer. The free drug concentration was determined by subjecting the samples to 7 minutes in an ultracentrifuge at 470,000× gravity. A 100 μL aliquot was withdrawn and diluted in 5× in DMSO and Methanol and tested by the HPLC method described in Table 2. Six (6) replicates were performed in each media. In all cases, bezuclastinib was practically insoluble (free drug concentration ≤1.2 μg/mL).

[8] = Pka of Bezuclastinib (Table 1); assay type: physicochemical; conditions: Weak Base
Text: as §1

[9] = test system: cells with activating c-kit mutations in the catalytic region; conditions: Ma et al., 2002; cited from earlier work

Compound | logD [1] | solubility ([2]; DMSO) [mg/mL] | solubility ([2]; organic solvents of Table 3 other than DMSO) [mg/mL] | Microcentrifuge Assay @ 5 min (total drug) ([3]; 5 min) [µg/mL] | Ultracentrifuge Assay @ 5 min (free drug) ([3]; 5 min) [µg/mL] | Microcentrifuge Assay @ 60 min (total drug) ([3]; 60 min) [µg/mL] | Ultracentrifuge Assay @ 60 min (free drug) ([3]; 60 min) [µg/mL] | Microcentrifuge Assay @ 6 hrs (total drug) ([3]; 6 hrs) [µg/mL] | Ultracentrifuge Assay @ 6 hrs (free drug) ([3]; 6 hrs) [µg/mL] | median time to maximum concentration [4] [h] | half-life (clinical) [days] | solubility [5] [µg/mL] | solubility ([6]; aqueous conditions, pH 7.0, read-out: solubility in aqueous conditions) [µg/mL] | solubility ([6]; aqueous medium, pH = 7.0, read-out: Aqueous solubility) [µg/mL] | solubility [7] [µg/mL] | pKa [8] | inhibition of cells with c-kit mutations in the catalytic region [9]
Cc1n[nH]c(C(=O)Nc2cnc3[nH]c(-c4ccccc4)cc3c2)c1C [Bezuclastinib, 3,4-dimethyl-N-(2-phenyl-1H-pyrrolo[2,3-b]pyridin-5-yl)-1H-pyrazole-5-carboxamide] | 3.46 | < 20 | < 5 | 2.0 | 1.5 | 3.4 | 1.6 | 2.0 | 1.7 | 12 to 16 | 2.02 to 2.98 | < 20 | 0.32 (≈ 0.966 µM) | 0.31 (≈ 0.935 µM) | ≤ 1.2 | 2.86 | –
Cc1ccc(NC(=O)c2ccc(CN3CCN(C)CC3)cc2)cc1Nc1nccc(-c2cccnc2)n1 [STI571] | – | – | – | – | – | – | – | – | – | – | – | – | – | – | – | – | did not inhibit the cells
